Assay results taken from patent US12195473B2, “KRAS mutant protein inhibitors” (JACOBIO PHARMACEUTICALS CO., LTD, priority 2019, dated 2025).
Like-named read-outs stand apart in the source and are kept apart here.

Experiments:
[1] = test system: HIS-KRAS (G12C); assay type: biochemical; details: read-out: SOS1 catalyzed nucleotide exchange IC50
[2] = Mouse pharmacokinetic study; assay type: in vivo, Balb/c mouse
Method: 3. Mouse Pharmacokinetic Study
The purpose of this study was to evaluate the pharmacokinetic properties of compounds in Balb/c mouse (♀) following single dose administration. The day before administration, mice were fasted overnight and free access to water. Six mice were needed for each compound and the six mice were divided into two groups (n=3/group), group A and group B. Mice in group A were treated with a single 3 mg/kg dose of compound (iv). Mice in group B were treated with a single 10 mg/kg dose of compound (po). For each mouse in group A, blood samples were collected at pre-dose, and at the time point of 0.083, 0.25, 0.5, 1, 2, 4, 6, 8 and 24 h post-dose. For each mouse in group B, blood samples were collected at pre-dose, and at the time point of 0.25, 0.5, 1, 2, 3, 4, 6, 8 and 24 h post-dose. Blood samples were placed on ice until centrifugation to obtain plasma samples. The plasma samples were stored at −80° C. until analysis. The concentration of compound in plasma samples were determined using a LC-MS/MS method.

[3] = GDP-loaded HIS-KRAS (G12C), 1 hour pre-incubation with compound, TR-FRET

| Compound | IC50 [1, 3] [nM] | also measured |
| --- | --- | --- |
| C=CC(=O)N1CCN(c2c(C#N)c(=O)n(-c3c(C)ccnc3C(C)C)c3nc(-c4c(N)cccc4F)c(Cl)cc23)CC1 [Compound A, 4-(4-acryloylpiperazin-1-yl)-7-(2-amino-6-fluorophenyl)-6-chloro-1-(2-isopropyl-4-methylpyridin-3-yl)-2-oxo-1,2-dihydro-1,8-naphthyridine-3-carbonitrile, reference compound] | 1.69 |  |
| C=CC(=O)N1CCN(c2c(C#N)c(=O)n(-c3c(C)ccnc3C(C)C)c3nc(-c4c(F)c(F)c(F)c(N)c4Cl)c(Cl)cc23)CC1 (single isomer, unassigned) [Compound 12-2, 4-(4-acryloylpiperazin-1-yl)-7-(3-amino-2-chloro-4,5,6-trifluorophenyl)-6-chloro-1-(2-isopropyl-4-methylpyridin-3-yl)-2-oxo-1,2-dihydro-1,8-naphthyridine-3-carbonitrile] |  | IC50 [1]: 2.01 nM |
| C=CC(=O)N1CCN(c2c(C#N)c(=O)n(-c3c(C)ccnc3C(C)C)c3nc(-c4c(N)c(Cl)c(F)c(Cl)c4F)c(Cl)cc23)CC1 [Compound 4, 4-(4-acryloylpiperazin-1-yl)-7-(2-amino-3,5-dichloro-4,6-difluorophenyl)-6-chloro-1-(2-isopropyl-4-methylpyridin-3-yl)-2-oxo-1,2-dihydro-1,8-naphthyridine-3-carbonitrile] | 3.48 |  |
| C=CC(=O)N1CCN(c2c(C#N)c(=O)n(-c3c(C)ccnc3C(C)C)c3nc(-c4c(F)c(F)c(F)c(N)c4Cl)c(Cl)cc23)[C@@H](C)C1 (single isomer, unassigned) [Compound 15-2] | 83.9 |  |
| C=CC(=O)N1CCN(c2c(C#N)c(=O)n(-c3c(C)ccnc3C(C)C)c3nc(-c4c(N)c(F)c(F)c(F)c4F)c(Cl)cc23)C[C@H]1C [Compound 9, 4-((R)-4-acryloyl-3-methylpiperazin-1-yl)-7-(2-amino-3,4,5,6-tetrafluorophenyl)-6-chloro-1-(2-isopropyl-4-methylpyridin-3-yl)-2-oxo-1,2-dihydro-1,8-naphthyridine-3-carbonitrile] | 2.3 |  |
| C=CC(=O)N1CCN(c2c(C#N)c(=O)n(-c3c(C)ccnc3C(C)C)c3nc(-c4c(N)c(F)c(F)c(F)c4F)c(Cl)cc23)[C@@H](C)C1 [Compound 11, 4-((S)-4-acryloyl-2-methylpiperazin-1-yl)-7-(2-amino-3,4,5,6-tetrafluorophenyl)-6-chloro-1-(2-isopropyl-4-methylpyridin-3-yl)-2-oxo-1,2-dihydro-1,8-naphthyridine-3-carbonitrile] |  | Pharmacokinetic properties (in words) ([2]; mouse model, compared with Compound A, Amgen 6 and Amgen 6.3): excellent pharmacokinetic properties; clearance ([2]; plasma, Balb/c mouse (female), 3 mg/kg, iv): 7.2 mL/min/kg; Vd ([2]; plasma, Balb/c mouse (female), 3 mg/kg, iv, read-out: Vss): 1 L/kg; Cmax ([2]; plasma, Balb/c mouse (female), 10 mg/kg, po): 3340 ng/mL; AUC(0-t) ([2]; plasma, Balb/c mouse (female), 10 mg/kg, po, read-out: AUC0-24 h): 9590 ng·h/mL; bioavailability ([2]; plasma, Balb/c mouse (female), 10 mg/kg, po, read-out: Oral BA (F %)): 38% |
| C=CC(=O)N1CCN(c2c(C#N)c(=O)n(-c3c(C)ccnc3C(C)C)c3nc(-c4c(N)c(F)c(F)c(F)c4F)c(Cl)cc23)[C@@H](C)C1 (single isomer, unassigned) [Compound 11-2] | 2.11 |  |
| C=CC(=O)N1CCN(c2c(C#N)c(=O)n(-c3c(C)ccnc3C(C)C)c3nc(-c4c(F)c(F)c(F)c(N)c4Cl)c(Cl)cc23)CC1 [Compound 12, 4-(4-acryloylpiperazin-1-yl)-7-(3-amino-2-chloro-4,5,6-trifluorophenyl)-6-chloro-1-(2-isopropyl-4-methylpyridin-3-yl)-2-oxo-1,2-dihydro-1,8-naphthyridine-3-carbonitrile] |  | IC50 [1]: 3.85 nM |
| C=CC(=O)N1[C@H](C)CN(c2c(C#N)c(=O)n(-c3c(C)ccnc3C(C)C)c3nc(-c4c(N)c(F)c(F)c(F)c4F)c(Cl)cc23)C[C@@H]1C [Compound 13, 4-((3S,5R)-4-acryloyl-3,5-dimethylpiperazin-1-yl)-7-(2-amino-3,4,5,6-tetrafluorophenyl)-6-chloro-1-(2-isopropyl-4-methylpyridin-3-yl)-2-oxo-1,2-dihydro-1,8-naphthyridine-3-carbonitrile] | 6.63 |  |
| C=CC(=O)N1CCN(c2c(C#N)c(=O)n(-c3c(C)ccnc3C(C)C)c3nc(-c4c(N)c(F)c(F)c(F)c4F)c(Cl)cc23)C[C@H]1C [Compound 14, 4-((R)-4-acryloyl-3-methylpiperazin-1-yl)-7-(2-amino-3,4,5,6-tetrafluorophenyl)-6-chloro-1-(2-isopropyl-4-methylpyridin-3-yl)-2-oxo-1,2-dihydro-1,8-naphthyridine-3-carbonitrile] | 3.56 |  |
| C=CC(=O)N1CCN(c2c(C#N)c(=O)n(-c3c(C)ccnc3C(C)C)c3nc(-c4c(N)c(F)c(F)c(F)c4Cl)c(Cl)cc23)C[C@H]1C (single isomer, unassigned) [Compound 10-2] | 4.16 |  |
| C=CC(=O)N1CCN(c2c(C#N)c(=O)n(-c3c(C)ccnc3C(C)C)c3nc(-c4c(F)c(F)c(F)c(N)c4Cl)c(Cl)cc23)CC1 (single isomer, unassigned) [Compound 12-1, 4-(4-acryloylpiperazin-1-yl)-7-(3-amino-2-chloro-4,5,6-trifluorophenyl)-6-chloro-1-(2-isopropyl-4-methylpyridin-3-yl)-2-oxo-1,2-dihydro-1,8-naphthyridine-3-carbonitrile] | 16 |  |
| C=CC(=O)N1CCN(c2c(C#N)c(=O)n(-c3c(C)ccnc3C(C)C)c3nc(-c4c(Cl)c(N)c(F)c(F)c4Cl)c(Cl)cc23)CC1 [Compound 2, 4-(4-acryloylpiperazin-1-yl)-7-(3-amino-2,6-dichloro-4,5-difluorophenyl)-6-chloro-1-(2-isopropyl-4-methylpyridin-3-yl)-2-oxo-1,2-dihydro-1,8-naphthyridine-3-carbonitrile] | 6.66 |  |
| C=CC(=O)N1CCN(c2c(C#N)c(=O)n(-c3c(C)ccnc3C(C)C)c3nc(-c4c(N)c(Cl)c(F)c(F)c4F)c(Cl)cc23)CC1 [Compound 3, 4-(4-acryloylpiperazin-1-yl)-7-(2-amino-3-chloro-4,5,6-trifluorophenyl)-6-chloro-1-(2-isopropyl-4-methylpyridin-3-yl)-2-oxo-1,2-dihydro-1,8-naphthyridine-3-carbonitrile] | 3.67 |  |
| C=CC(=O)N1CCN(c2c(C#N)c(=O)n(-c3c(C)ccnc3C(C)C)c3nc(-c4c(F)c(F)c(F)c(N)c4Cl)c(Cl)cc23)[C@@H](C)C1 (single isomer, unassigned) [Compound 15-1] | 6.87 |  |
| C=CC(=O)N1[C@H](C)CN(c2c(C#N)c(=O)n(-c3c(C)ccnc3C(C)C)c3nc(-c4c(N)c(F)c(F)c(F)c4F)c(Cl)cc23)C[C@@H]1C (single isomer, unassigned) [Compound 13-2] | 11.5 |  |
| C=CC(=O)N1[C@H](C)CN(c2c(C#N)c(=O)n(-c3c(C)ccnc3C(C)C)c3nc(-c4c(N)c(F)c(F)c(F)c4F)c(Cl)cc23)C[C@@H]1C (single isomer, unassigned) [Compound 13-1] | 2.73 |  |
| C=CC(=O)N1[C@H](C)CN(c2c(C#N)c(=O)n(-c3c(C)ccnc3C(C)C)c3nc(-c4c(F)c(F)c(F)c(N)c4Cl)c(Cl)cc23)C[C@@H]1C [Compound 7, 4-((3S,5R)-4-acryloyl-3,5-dimethylpiperazin-1-yl)-7-(3-amino-2-chloro-4,5,6-trifluorophenyl)-6-chloro-1-(2-isopropyl-4-methylpyridin-3-yl)-2-oxo-1,2-dihydro-1,8-naphthyridine-3-carbonitrile] | 14.9 |  |
| C=CC(=O)N1CCN(c2c(C#N)c(=O)n(-c3c(C)ccnc3C(C)C)c3nc(-c4c(F)c(N)c(F)c(F)c4F)c(Cl)cc23)CC1 [Compound 6, 4-(4-acryloylpiperazin-1-yl)-7-(3-amino-2,4,5,6-tetrafluorophenyl)-6-chloro-1-(2-isopropyl-4-methylpyridin-3-yl)-2-oxo-1,2-dihydro-1,8-naphthyridine-3-carbonitrile] | 1.51 |  |
| C=CC(=O)N1[C@H](C)CN(c2c(C#N)c(=O)n(-c3c(C)ccnc3C(C)C)c3nc(-c4c(F)c(N)c(F)c(F)c4F)c(Cl)cc23)C[C@@H]1C [Compound 8, 4-((3S,5R)-4-acryloyl-3,5-dimethylpiperazin-1-yl)-7-(3-amino-2,4,5,6-tetrafluorophenyl)-6-chloro-1-(2-isopropyl-4-methylpyridin-3-yl)-2-oxo-1,2-dihydro-1,8-naphthyridine-3-carbonitrile] | 6.68 |  |
| C=CC(=O)N1CCN(c2c(C#N)c(=O)n(-c3c(C)ccnc3C(C)C)c3nc(-c4c(N)c(F)c(F)c(F)c4Cl)c(Cl)cc23)C[C@H]1C (single isomer, unassigned) [Compound 10-1] | 43.9 |  |
| C=CC(=O)N1CCN(c2c(C#N)c(=O)n(-c3c(C)ccnc3C(C)C)c3nc(-c4c(N)c(F)c(F)c(F)c4F)c(Cl)cc23)[C@@H](C)C1 (single isomer, unassigned) [Compound 11-1] | 29.6 |  |
| C=CC(=O)N1[C@H](C)CN(c2c(C#N)c(=O)n(-c3c(C)ccnc3C(C)C)c3nc(-c4ccccc4F)c(Cl)cc23)C[C@@H]1C [Amgen 7.3, 4-((3S,5R)-4-acryloyl-3,5-dimethylpiperazin-1-yl)-6-chloro-7-(2-fluorophenyl)-1-(2-isopropyl-4-methylpyridin-3-yl)-2-oxo-1,2-dihydro-1,8-naphthyridine-3-carbonitrile, reference compound] | 10.5 |  |
